These results are taken from patent US10160753B2, “Indazole compounds as IRAK4 inhibitors” (Aurigene Discovery Technologies Limited, priority 2014, dated 2018).

Counter-ions that a name gives are not always drawn.

The target of the assay is T1, recombinant IRAK-4 kinase (Homo sapiens, UniProt Q9NWZ3).
T1 construct: purchased Millipore, USA
T1 sequence (Q9NWZ3 1-460): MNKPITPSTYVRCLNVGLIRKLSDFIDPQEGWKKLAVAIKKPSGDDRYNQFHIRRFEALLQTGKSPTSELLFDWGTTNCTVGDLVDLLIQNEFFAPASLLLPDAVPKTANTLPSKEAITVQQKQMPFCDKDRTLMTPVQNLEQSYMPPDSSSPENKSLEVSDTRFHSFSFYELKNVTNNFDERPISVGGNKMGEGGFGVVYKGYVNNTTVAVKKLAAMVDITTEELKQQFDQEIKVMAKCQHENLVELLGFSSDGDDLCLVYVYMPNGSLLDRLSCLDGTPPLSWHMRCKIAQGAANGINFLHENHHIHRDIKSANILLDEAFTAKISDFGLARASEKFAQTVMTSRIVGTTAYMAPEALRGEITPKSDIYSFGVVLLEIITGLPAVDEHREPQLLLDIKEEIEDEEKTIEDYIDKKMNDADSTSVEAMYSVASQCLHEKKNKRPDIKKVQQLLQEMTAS
Put plainly: IRAK-4 Biochemical Assay (TR-FRET). The conditions noted are these: 30 min pre-incubation, 100 nM Biotin Histone H3, 20 μM ATP, read-out: IC50 values for IRAK4 activity. The procedure: Compounds were tested for their potential to inhibit IRAK-4 enzyme in a TR-FRET assay using recombinant IRAK-4 kinase from Millipore, USA. The assay buffer was 50 mM Tris-HCl pH 7.5, 20 mM MgCl2, 1 mM EGTA, 2 mM DTT, 3 mM MnCl2 and 0.01% Tween 20.5 ng of IRAK-4 kinase was used for the assay. After pre-incubation of enzyme with test compound for 30 minutes at room temperature, a substrate mixture containing 100 nM Biotin Histone H3 (Millipore, USA) and 20 μM ATP (Sigma, USA) was added and the reaction was incubated for 30 min. Post incubation, the reaction was stopped by the addition of stop mix containing 40 mM EDTA, 1 nM of Europium-Anti-Phospho-Histone H3 (Ser10) antibody (Perkin Elmer, USA) and 20 nM SureLight Allophycocyanin-Streptavidin (Perkin Elmer, USA). The fluorescence emission at 615 nm and 665 nm were measured at an excitation of 340 nm and the percent inhibition was estimated from the ratio of the fluorescence intensities [(F665/F615)×10000]. The compounds were initially screened at 1 μM and 10 μM concentrations and potent compounds (>50% inhibition at 1 μM) were taken for dose response studies. The IC50 values were estimated by fitting the dose-response data to sigmoidal dose response (variable slope), curve fitting program using Graphpad Prism software Version 6.01.
With `Cn1cc(-c2cccc(C(=O)Nc3cc4cnn(C5CCCC5)c4cc3C3CC3)n2)cn1` [Example 17, N-(1-cyclopentyl-6-cyclopropyl-1H-indazol-5-yl)-6-(1-methyl-1H-pyrazol-4-yl)picolinamide], the concentration for half-maximal inhibition (IC50) was over 100 nM. For the compound `Cn1cc2cc(NC(=O)c3cccc(N4CC[C@H](N)C4)n3)c(N3CCCCC3)cc2n1` [Example 33, (S)-6-(3-aminopyrrolidin-1-yl)-N-(2-methyl-6-(piperidin-1-yl)-2H-indazol-5-yl)picolinamide 2,2,2-trifluoroacetate], the IC50 was 50 to 100 nM. In the case of `Cc1ncccc1-c1nc(C(=O)Nc2cc3cn(C4CCCC4)nc3cc2C2CC2)co1` [Example 26, N-(2-cyclopentyl-6-cyclopropyl-2H-indazol-5-yl)-2-(2-methylpyridin-3-yl)oxazole-4-carboxamide], the IC50 was under 50 nM.

With `COc1cc(-c2nc(C(=O)Nc3cc4cn(C)nc4cc3N3CCC(CO)CC3)co2)ccn1` [Example 97, N-(6-(4-(hydroxymethyl)piperidin-1-yl)-2-methyl-2H-indazol-5-yl)-2-(2-methoxypyridin-4-yl)oxazole-4-carboxamide], the IC50 was under 50 nM.

Regarding `Cc1cc(-c2nc(C(=O)Nc3cc4cnn(C)c4cc3N3CCCCCC3)co2)ccn1` [Example 72, N-(6-(azepan-1-yl)-1-methyl-1H-indazol-5-yl)-2-(2-methylpyridin-4-yl)oxazole-4-carboxamide], the IC50 is under 50 nM.

On to `Cc1cc(-c2nc(C(=O)Nc3cc4cn(C)nc4cc3N3CCCC(O)C3)co2)ccn1` (stereo not shown) [Example 68, N-(6-(3-hydroxypiperidin-1-yl)-2-methyl-2H-indazol-5-yl)-2-(2-methylpyridin-4-yl)oxazole-4-carboxamide], for which the IC50 is under 50 nM. Consider `Cc1cc(-c2nc(C(=O)Nc3cc4cnn(C)c4cc3N3CCC(F)CC3)co2)ccn1` [Example 78, N-(6-(4-fluoropiperidin-1-yl)-1-methyl-1H-indazol-5-yl)-2-(2-methylpyridin-4-yl)oxazole-4-carboxamide], for which the IC50 was under 50 nM. On to `Cn1cc2cc(NC(=O)c3cccc(N4CC[C@H](O)C4)n3)c(N3CCCCC3)cc2n1` [Example 39, (S)-6-(3-hydroxypyrrolidin-1-yl)-N-(2-methyl-6-(piperidin-1-yl)-2H-indazol-5-yl)picolinamide], for which the IC50 is under 50 nM. As to `Cc1cc(-c2ccc(C(=O)Nc3cc4cn(C)nc4cc3N3CCCCC3)o2)ccn1` [Example 66, N-(2-methyl-6-(piperidin-1-yl)-2H-indazol-5-yl)-5-(2-methylpyridin-4-yl)furan-2-carboxamide], the half-inhibitory concentration (IC50) is under 50 nM.

For `COCCn1cc2cc(NC(=O)c3coc(-c4ccnc(C)c4)n3)c(N3CCC(N)CC3)cc2n1` [Example 118, N-(6-(4-aminopiperidin-1-yl)-2-(2-methoxyethyl)-2H-indazol-5-yl)-2-(2-methylpyridin-4-yl)oxazole-4-carboxamide hydrochloride], the IC50 is under 50 nM. The same measure for `O=C(Nc1cc2cn(C3CCCC3)nc2cc1C1CC1)c1cccc(-c2cn[nH]c2)n1` [Example 7, N-(2-cyclopentyl-6-cyclopropyl-2H-indazol-5-yl)-6-(1H-pyrazol-4-yl) picolinamide]: under 50 nM. Next, `Cc1nn(C)c2cc(N3CCC(CO)CC3)c(NC(=O)c3coc(-c4ccnc(N)c4)n3)cc12` [Example 112, 2-(2-aminopyridin-4-yl)-N-(6-(4-(hydroxymethyl)piperidin-1-yl)-1,3-dimethyl-1H-indazol-5-yl)oxazole-4-carboxamide]: under 50 nM; `Cn1cc2cc(NC(=O)c3coc(-c4ccnc(N)c4)n3)c(N3CCCC(F)C3)cc2n1` (stereo not shown) [Example 104, 2-(2-aminopyridin-4-yl)-N-(6-(3-fluoropiperidin-1-yl)-2-methyl-2H-indazol-5-yl)oxazole-4-carboxamide hydrochloride]: under 50 nM. In the case of `CCOP(=O)(OCC)OCC1CCN(c2cc3nn(C)cc3cc2NC(=O)c2coc(-c3ccnc(C)c3)n2)CC1` [Example 129, Diethyl ((1-(2-methyl-5-(2-(2-methylpyridin-4-yl)oxazole-4-carboxamido)-2H-indazol-6-yl)piperidin-4-yl)methyl) phosphate], the IC50 is under 50 nM. Next, `C[C@H](O)Cn1cc(-c2cccc(C(=O)Nc3cc4cnn(C)c4cc3N3CCC(CO)CC3)n2)cn1` [Example 95, (S)—N-(6-(4-(hydroxymethyl)piperidin-1-yl)-1-methyl-1H-indazol-5-yl)-6-(1-(2-hydroxypropyl)-1H-pyrazol-4-yl)picolinamide]: over 100 nM. The same measure for `Cc1cc(-c2nc(C(=O)Nc3cc4cnn(CCO)c4cc3N3CCC(O)CC3)co2)ccn1` [Example 117, N-(1-(2-hydroxyethyl)-6-(4-hydroxypiperidin-1-yl)-1H-indazol-5-yl)-2-(2-methylpyridin-4-yl)oxazole-4-carboxamide]: under 50 nM; for `Cc1cc(-c2nc(C(=O)Nc3cc4cn(C)nc4cc3N[C@H]3CC[C@H](O)CC3)co2)ccn1` [Example 88, N-(6-(((1R,4R)-4-hydroxycyclohexyl)amino)-2-methyl-2H-indazol-5-yl)-2-(2-methylpyridin-4-yl)oxazole-4-carboxamide]: under 50 nM; for `CN(C)c1cc(-c2nc(C(=O)Nc3cc4cn(C)nc4cc3N3CCCCC3)co2)ccn1` [Example 120, 2-(2-(dimethylamino)pyridin-4-yl)-N-(2-methyl-6-(piperidin-1-yl)-2H-indazol-5-yl)oxazole-4-carboxamide hydrochloride]: under 50 nM. Next, `Cc1cc(-c2nc(C(=O)Nc3cc4c(C)n(C)nc4cc3N3CCC(O)CC3)co2)ccn1` [Example 83, N-(6-(4-hydroxypiperidin-1-yl)-2,3-dimethyl-2H-indazol-5-yl)-2-(2-methylpyridin-4-yl)oxazole-4-carboxamide]: under 50 nM; `Cn1cc2cc(NC(=O)c3cccc(N4CC[C@H](O)C4)n3)c(C3CC3)cc2n1` [Example 49, (S)—N-(6-cyclopropyl-2-methyl-2H-indazol-5-yl)-6-(3-hydroxypyrrolidin-1-yl)picolinamide]: under 50 nM. With `Cn1ncc2cc(NC(=O)c3coc(N4CC[C@H](O)C4)n3)c(C3CC3)cc21` [Example 50, (S)—N-(6-cyclopropyl-1-methyl-1H-indazol-5-yl)-2-(3-hydroxypyrrolidin-1-yl)oxazole-4-carboxamide], the IC50 was over 100 nM.

For the compound `Cc1cc(-c2nc(C(=O)Nc3cc4cnn(C)c4cc3N3CCC3)co2)ccn1` [Example 59, N-(6-(azetidin-1-yl)-1-methyl-1H-indazol-5-yl)-2-(2-methylpyridin-4-yl)oxazole-4-carboxamide], the IC50 is over 100 nM. The same measure for `Cn1ncc2cc(NC(=O)c3coc(-c4ccnc(N)c4)n3)c(N3CCC(CO)CC3)cc21` [Example 99, 2-(2-aminopyridin-4-yl)-N-(6-(4-(hydroxymethyl)piperidin-1-yl)-1-methyl-1H-indazol-5-yl)oxazole-4-carboxamide hydrochloride]: under 50 nM. Regarding `CC(=O)Nc1cc(-c2nc(C(=O)Nc3cc4cn(C)nc4cc3N3CCCC(F)C3)co2)ccn1` (stereo not shown) [Example 85, 2-(2-acetamidopyridin-4-yl)-N-(6-(3-fluoropiperidin-1-yl)-2-methyl-2H-indazol-5-yl)oxazole-4-carboxamide], the IC50 was under 50 nM.

In the case of `Cc1cc(-c2nc(C(=O)Nc3cc4cn(C)nc4cc3N3CCCCCC3)co2)ccn1` [Example 71, N-(6-(azepan-1-yl)-2-methyl-2H-indazol-5-yl)-2-(2-methylpyridin-4-yl)oxazole-4-carboxamide], the IC50 was under 50 nM.

As for `Cc1cc(-c2nc(C(=O)Nc3cc4cn(C)nc4cc3N3CCC(F)CC3)co2)ccn1` [Example 91, N-(6-(4-fluoropiperidin-1-yl)-2-methyl-2H-indazol-5-yl)-2-(2-methylpyridin-4-yl)oxazole-4-carboxamide hydrochloride], the IC50 is under 50 nM.

With `Cc1cc(-c2nc(C(=O)Nc3cc4cn(C)nc4cc3N3CCC(O)CC3)co2)cc(C)n1` [Example 126, 2-(2,6-dimethylpyridin-4-yl)-N-(6-(4-hydroxypiperidin-1-yl)-2-methyl-2H-indazol-5-yl) oxazole-4-carboxamide], the IC50 is under 50 nM.

Take `CC(=O)Nc1cc(-c2nc(C(=O)Nc3cc4cn(C)nc4cc3N3CCC(CO)CC3)co2)ccn1` [Example 98, 2-(2-acetamidopyridin-4-yl)-N-(6-(4-(hydroxymethyl)piperidin-1-yl)-2-methyl-2H-indazol-5-yl)oxazole-4-carboxamide]: the 50% inhibitory concentration (IC50) is under 50 nM.

One may read the IC50 as the concentration that inhibits the measured activity by half.
